Test results published in patent publication US20160074466A1, “ANGIOTENSINS FOR TREATMENT OF FIBROSIS” (UNIVERSITY OF SOUTHERN CALIFORNIA, priority 2011, published 2016).

Tests used:
[1] = Non-fasting whole blood glucose in STZ/high fat diet NASH mice; format: in vivo
Text: (§1) In this example, NASH was induced in 48 male mice by a single subcutaneous injection of streptozotocin (STZ, Sigma-Aldrich, USA) solution 2 days after birth and feeding with high fat diet (HFD, 57 kcal % fat, cat#HFD32, CLEA Japan, Japan) after 4 weeks of age. The mice were randomized into 6 groups of 8 mice at 7 weeks of age according to Table 1 below. Eight male littermates, fed with normal diet without STZ treatment, were used for the Normal group.
(§2) Group 1 (normal) consisted of eight normal mice fed with a normal diet ad libitum without any treatment. Group 2 (vehicle) consisted of eight NASH mice that were subcutaneously administered vehicle at a volume of 5 mL/kg once daily from 7 to 10 weeks of age. Group 3 (TXA127-30 μg) consisted of eight NASH mice that were subcutaneously administered vehicle supplemented with TXA127 at a dose of 30 μg/5 mL/kg once daily from 7 to 10 weeks of age. Group 4 (TXA127-100 μg) consisted of eight NASH mice that were subcutaneously administered vehicle supplemented with TXA127 at a dose of 100 μg/5 mL/kg once daily from 7 to 10 weeks of age. Group 5 (TXA127-300 μg) consisted of eight NASH mice that were subcutaneously administered vehicle supplemented with TXA127 at a dose of 300 μg/5 mL/kg once daily from 7 to 10 weeks of age. Group 6 (TXA127-1,000 μg) consisted of eight NASH mice that were subcutaneously administered vehicle supplemented with TXA127 at a dose of 1,000 μg/5 mL/kg once daily from 7 to 10 weeks of age. Group 7 consisted of eight NASH mice that were orally administered pure water supplemented with Telmisartan at a dose of 15 mg/10 mL/kg once daily from 8 to 10 weeks of age.
(§3) Vehicle (saline) and TXA127 were administered via subcutaneous administration to the mice in a volume of 5 mL/kg body weight. Telmisartan was administered by oral route to the mice in a volume of 10 mL/kg body weight. TXA127 was dissolved in saline, and Telmisartan (MICARDIS®) was purchased from Boehringer Ingelheim GmbH and was dissolved in pure water. TXA127 was administered once daily at the doses of 30, 100, 300 or 1000 μg/kg body weight. Telmisartan was administered once daily at the dose of 15 mg/kg body weight.
(§4) Non-fasting whole blood glucose levels were measured in whole blood samples using G Checker (Sanko Junyaku, Japan). For plasma biochemistry, blood was collected in polypropylene tubes with anticoagulant (Novo-Heparin, Mochida Pharmaceutical, Japan) and centrifuged at 1,000×g for 15 minutes at 4° C. The supernatant was collected and stored at −80° C. until use. The plasma levels of ALT, AST, and ALP were measured by FUJI DRI-CHEM 7000 (Fuji Film, Japan).

[2] = Plasma ALT, AST and ALP levels in STZ/high fat diet NASH mice; format: in vivo
Text: as §1, §2, §3, §4

NASH mice [3] = test: Liver hydroxyproline content in NASH mice; format: in vivo; conditions: normalized by total protein
Text: as §1, §2, §3
To quantify liver hydroxyproline content, frozen livers (40-60 mg) were minced and defatted in acetone for 30 minutes at room temperature. After centrifugation, the pellets were air-dried and dissolved in 400 μL of 2N NaOH at 65° C. The liver lysates were autoclaved at 121° C. for 20 minutes. The samples were then acid-hydrolyzed with 400 μL of 6N HCl at 121° C. for 20 minutes, and neutralized with 400 μL of 10 mg/mL activated carbon in 4N NaOH. The neutralized samples were buffered with 2.2 M acetic acid/0.48 M citric acid buffer and centrifuged to obtain the supernatant. In order to construct a standard curve of hydroxyproline, serial dilutions of trans-4-hydroxy-L-proline standard (Sigma, USA) were prepared starting at 16 μg/mL. Five hundred μL of the supernatant and standard were added to 500 μL chloramine T in 10% n-propanol/acetate-citrate buffer and incubated for 25 minutes at room temperature. […] After samples were cooled on ice and centrifuged to collect the supernatant, the optical density of each supernatant and standard was measured at 560 nm and the concentration of liver hydroxyproline was calculated form the hydroxyproline standard curve. Protein concentrations of each supernatant were determined using a BCA protein assay kit (Thermo Scientific, USA). […]

NASH mice [4] = test: Sirius red staining of liver sections, fibrosis area, in NASH mice; format: in vivo
Text: as §1, §2, §3
For quantitative analysis of fibrosis areas, bright field images of
Sirius red-stained sections were captured using a digital camera (DFC280, Leica, Germany) around central veins at 200-fold magnification, and the positive areas in 5 fields/section were quantified using ImageJ software (National Institute of Health, USA).

Collagen Type 1 mRNA = test: Quantitative RT-PCR of liver, Collagen Type 1 mRNA; format: in vivo, mice
Protocol: (§5) The animals, groups, treatment conditions and time points are the same as for Example 3 above. Livers were harvested from the animals in Example 3 and subjected to the following analysis.
(§6) Total RNA was extracted from liver samples using RNAiso (Takara Bio, Japan) according to the manufacturer's instructions. One μg of RNA was reverse-transcribed using a reaction mixture containing 4.5 mM MgCl2 (Roche, Switzerland), 40 U RNase inhibitor (Toyobo, Japan), 0.5 mM dNTP (Promega, USA), 6.28 μM random hexamer (Promega), 5× first strand buffer (Promega), 6.6 mM dithiothreitol (Invitrogen, USA) and MMLV-RT (Invitrogen) in a final volume of 20 μL. The reaction was carried out for 1 hour at 37° C., followed by 5 minutes at 99° C. Real-time PCR was performed using real-time PCR DICE and SYBR premix Taq (Takara Bio). To calculate the relative mRNA expression level, the expression of each gene was normalized to that of reference gene 36B4 (gene symbol: Rp1p0). Statistical analyses were performed using Bonferroni Multiple Comparison Test on Prism Software 4. P values <0.05 were considered statistically significant. The expression level of Collagen Type I, collagen type 3, α-SMA, TGF-β, CCR2, and TIMP-1 mRNA were assessed.

Collagen Type 3 mRNA = test: Quantitative RT-PCR of liver, Collagen Type 3 mRNA; format: in vivo, mice
Protocol: as §5, §6

α-SMA mRNA = test: Quantitative RT-PCR of liver, α-SMA mRNA; format: in vivo, mice
Protocol: as §5, §6

TGF-β mRNA = test: Quantitative RT-PCR of liver, TGF-β mRNA; format: in vivo, mice
Protocol: as §5, §6

CCR2 mRNA = test: Quantitative RT-PCR of liver, CCR2 mRNA; format: in vivo, mice
Protocol: as §5, §6

TIMP-1 mRNA = test: Quantitative RT-PCR of liver, TIMP-1 mRNA; format: in vivo, mice
Protocol: as §5, §6

NASH mice [5] = test: Liver weight, NAS and inflammatory cell infiltration in NASH mice (summary statements); format: in vivo
Text: as §1, §2
as §3, with “Telmisartan was administered once daily at the dose of 15 mg/kg body weight.” left out

[6] = 30 μg/kg SQ QD, 7-10 wks of age
[7] = 100 μg/kg SQ QD, 7-10 wks of age
[8] = 300 μg/kg SQ QD, 7-10 wks of age
[9] = 1000 μg/kg SQ QD, 7-10 wks of age
[10] = relative to 36B4, Normal = 1.00, 30 μg/kg SQ QD
[11] = relative to 36B4, Normal = 1.00, 100 μg/kg SQ QD
[12] = relative to 36B4, Normal = 1.00, 300 μg/kg SQ QD
[13] = relative to 36B4, Normal = 1.00, 1000 μg/kg SQ QD
[14] = 15 mg/kg oral QD, 8-10 wks of age
[15] = relative to 36B4, Normal = 1.00, 15 mg/kg oral QD
[16] = 15 mg/kg oral QD, compared with the Vehicle group

Compound: TXA127: test substance dissolved in saline, given subcutaneously; not defined in the text, apparently the angiotensin-(1-7) peptide (DRVYIHP; Angiotensin 1-7; UniProt P01019 25-31, looked up)
- non-fasting blood glucose levels in whole blood [1, 6]: 675 ± 103 mg/dL
- non-fasting blood glucose levels in whole blood [1, 7]: 590 ± 131 mg/dL
- non-fasting blood glucose levels in whole blood [1, 8]: 639 ± 76 mg/dL
- non-fasting blood glucose levels in whole blood [1, 9]: 632 ± 92 mg/dL
- plasma ALP levels [2, 6]: 428±61 U/L
- plasma ALT levels [2, 6]: 46±15 U/L
- plasma AST levels [2, 6]: 160±94 U/L
- plasma ALP levels [2, 7]: 358±75 U/L
- plasma ALT levels [2, 7]: 89±56 U/L
- plasma AST levels [2, 7]: 352±174 U/L
- plasma ALP levels [2, 8]: 472±100 U/L
- plasma ALT levels [2, 8]: 43±17 U/L
- plasma AST levels [2, 8]: 149±50 U/L
- plasma ALP levels [2, 9]: 397±96 U/L
- plasma ALT levels [2, 9]: 41±10 U/L
- plasma AST levels [2, 9]: 142±32 U/L
- liver hydroxyproline content (NASH mice [3]; [6]): 1.22 ± 0.29 µg/mg
- liver hydroxyproline content (NASH mice [3]; [7]): 0.88 ± 0.17 µg/mg
- liver hydroxyproline content (NASH mice [3]; [8]): 1.24 ± 0.51 µg/mg
- liver hydroxyproline content (NASH mice [3]; [9]): 1.34 ± 0.69 µg/mg
- percentage of fibrosis area (Sirius red-positive area) (NASH mice [4]; [6]): 0.88±0.33%
- percentage of fibrosis area (Sirius red-positive area) (NASH mice [4]; [7]): 0.55±0.29%
- percentage of fibrosis area (Sirius red-positive area) (NASH mice [4]; [8]): 0.54±0.18%
- percentage of fibrosis area (Sirius red-positive area) (NASH mice [4]; [9]): 0.51±0.09%
- Collagen Type 1 mRNA expression levels (Collagen Type 1 mRNA; [10]): 4.48±0.91
- Collagen Type 1 mRNA expression levels (Collagen Type 1 mRNA; [11]): 3.37±1.58
- Collagen Type 1 mRNA expression levels (Collagen Type 1 mRNA; [12]): 3.06±1.12
- Collagen Type 1 mRNA expression levels (Collagen Type 1 mRNA; [13]): 2.77±0.77
- Collagen Type 3 mRNA expression levels (Collagen Type 3 mRNA; [10]): 3.23±0.54
- Collagen Type 3 mRNA expression levels (Collagen Type 3 mRNA; [11]): 2.82±1.50
- Collagen Type 3 mRNA expression levels (Collagen Type 3 mRNA; [12]): 2.81±0.89
- Collagen Type 3 mRNA expression levels (Collagen Type 3 mRNA; [13]): 2.24±0.68
- α-SMA mRNA expression levels (α-SMA mRNA; [10]): 2.88±1.08
- α-SMA mRNA expression levels (α-SMA mRNA; [11]): 2.65±2.46
- α-SMA mRNA expression levels (α-SMA mRNA; [12]): 2.49±0.98
- α-SMA mRNA expression levels (α-SMA mRNA; [13]): 1.92±0.67
- TGF-β mRNA expression levels (TGF-β mRNA; [10]): 2.35±0.44
- TGF-β mRNA expression levels (TGF-β mRNA; [11]): 1.93±0.44
- TGF-β mRNA expression levels (TGF-β mRNA; [12]): 1.69±0.49
- TGF-β mRNA expression levels (TGF-β mRNA; [13]): 1.70±0.35
- CCR2 mRNA expression levels (CCR2 mRNA; [10]): 2.60±0.60
- CCR2 mRNA expression levels (CCR2 mRNA; [11]): 3.26±2.01
- CCR2 mRNA expression levels (CCR2 mRNA; [12]): 2.82±0.88
- CCR2 mRNA expression levels (CCR2 mRNA; [13]): 3.10±1.55
- TIMP-1 mRNA expression levels (TIMP-1 mRNA; [10]): 6.74±1.93
- TIMP-1 mRNA expression levels (TIMP-1 mRNA; [11]): 9.80±8.93
- TIMP-1 mRNA expression levels (TIMP-1 mRNA; [12]): 7.54±3.05
- TIMP-1 mRNA expression levels (TIMP-1 mRNA; [13]): 8.54±6.41
- inflammatory cell infiltration (NASH mice [5]; all doses (30, 100, 300, 1000 μg/kg SQ QD)): decreased inflammatory cell infiltration

Compound: CCCc1nc2c(C)cc(-c3nc4ccccc4n3C)cc2n1Cc1ccc(-c2ccccc2C(=O)O)cc1 [Telmisartan, reference compound]
- non-fasting blood glucose levels in whole blood ([1]; 15 mg/kg oral QD, 8-10 wks of age, detection limit 900 mg/dL): 900 ± 0 mg/dL
- plasma ALP levels [2, 14]: 605±130 U/L
- plasma ALT levels [2, 14]: 41±10 U/L
- plasma AST levels [2, 14]: 232±141 U/L
- liver hydroxyproline content (NASH mice [3]; [14]): 1.46 ± 0.69 µg/mg
- percentage of fibrosis area (Sirius red-positive area) (NASH mice [4]; [14]): 0.44±0.12%
- Collagen Type 1 mRNA expression levels (Collagen Type 1 mRNA; [15]): 3.14±0.59
- Collagen Type 3 mRNA expression levels (Collagen Type 3 mRNA; [15]): 2.09±0.50
- α-SMA mRNA expression levels (α-SMA mRNA; [15]): 2.07±0.87
- TGF-β mRNA expression levels (TGF-β mRNA; [15]): 1.58±0.23
- CCR2 mRNA expression levels (CCR2 mRNA; [15]): 1.94±0.37
- TIMP-1 mRNA expression levels (TIMP-1 mRNA; [15]): 4.22±1.52
- NAS (NASH mice [5]; [16]): significantly decreased
- liver weight (NASH mice [5]; [16]): significantly decreased
